Measured values: US20230357179A1, “RAF KINASE INHIBITORS AND METHODS OF USE THEREOF” (Deciphera Pharmaceuticals, LLC, priority 2021, published 2023)
pIC50: −log10 of the molar value.

Assays:
[1] = target: T1, C-Raf kinase (Homo sapiens, UniProt P04049, Y340D/Y341D); assay: Biochemical assay for C-Raf.1 (coupled pyruvate kinase/lactate dehydrogenase); conditions: read-out: CRAF.1 IC50
T1 construct: Y340D,; GST (N); purchased Sigma
Method: Biochemical Assay for C-Raf.1
(§1) Activity of C-Raf kinase (SEQ. ID NO: 3) was determined spectroscopically using a coupled pyruvate kinase/lactate dehydrogenase assay that continuously monitors the ATP hydrolysis-dependent oxidation of NADH (e.g., Schindler et al., Science, 2000, 289, 1938-1942). Assays were conducted in 384-well plates (100 μL final volume) using 0.43 nM C-Raf (Sigma), 1.5 units pyruvate kinase, 2.1 units lactate dehydrogenase, 1 mM phosphoenol pyruvate, 0.28 mM NADH, 30.1 nM MEK (SignalChem), and 1 mM ATP in assay buffer (100 mM Tris, pH 7.5, 15 mM MgCl2, 0.5 mM DTT, 0.1% octyl-glucoside, 0.002% (w/v) BSA, and 0.002% Triton X-100). Inhibition of C-Raf was measured by adding serial diluted test compound (final assay concentration of 1% DMSO). A decrease in absorption at 340 nm was monitored continuously for 6 h at 30° C. on a multi-mode microplate reader (BioTek). The reaction rate was calculated using the 4 to 5 h time frame. The reaction rate at each concentration of compound was converted to percent inhibition using controls (i.e., reaction with no test compound and reaction with a known inhibitor) and IC50 values were calculated by fitting a four-parameter sigmoidal curve to the data using Prism (GraphPad software).

[2] = target: T2, B-Raf kinase (Homo sapiens, UniProt P15056); assay: Biochemical assay for B-Raf.1 (coupled pyruvate kinase/lactate dehydrogenase); conditions: read-out: BRAF.1 IC50
T2 construct: GST (N); purchased Sigma
T2 sequence (P15056 416-766): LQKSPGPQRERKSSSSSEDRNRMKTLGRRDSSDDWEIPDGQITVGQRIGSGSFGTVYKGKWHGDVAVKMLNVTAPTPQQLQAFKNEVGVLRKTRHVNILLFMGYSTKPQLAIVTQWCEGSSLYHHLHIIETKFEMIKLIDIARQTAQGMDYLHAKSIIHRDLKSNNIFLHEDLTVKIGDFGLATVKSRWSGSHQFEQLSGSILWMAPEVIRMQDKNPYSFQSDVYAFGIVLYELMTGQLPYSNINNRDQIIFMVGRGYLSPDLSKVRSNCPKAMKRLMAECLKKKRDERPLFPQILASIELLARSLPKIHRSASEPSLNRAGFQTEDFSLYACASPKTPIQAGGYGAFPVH
Method: Biochemical Assay for B-Raf.1
as §1, with “B-Raf” for “C-Raf”, “2)” for “3)”, “0.13” for “0.43”

[3] = target: T3, B-Raf (V600E) kinase (Homo sapiens, UniProt P15056, V600E); assay: Biochemical assay for B-Raf (V600E).1 (coupled pyruvate kinase/lactate dehydrogenase); conditions: read-out: BRAF V600E.1 IC50
T3 construct: B-Raf (V600E) residues 416-766 with a; GST (N); purchased SignalChem
T3 sequence (P15056 416-766 V600E): as the sequence (P15056 416-766) above, with V185E counted along it
Method: Biochemical Assay for B-Raf (V600E).1
Activity of B-Raf (V600E) (SEQ. ID NO: 4) kinase was determined spectroscopically using a coupled pyruvate kinase/lactate dehydrogenase assay that continuously monitors the ATP hydrolysis-dependent oxidation of NADH (e.g., Schindler et al., Science, 2000, 289, 1938-1942). Assays were conducted in 384-well plates (100 μL final volume) using 0.03 nM B-Raf (SignalChem), 1.5 units pyruvate kinase, 2.1 units lactate dehydrogenase, 1 mM phosphoenol pyruvate, 0.28 mM NADH, 30.1 nM MEK (SignalChem), and 1 mM ATP in assay buffer (100 mM Tris, pH 7.5, 15 mM MgCl2, 0.5 mM DTT, 0.1% octyl-glucoside, 0.002% (w/v) BSA, and 0.002% Triton X-100). Inhibition of B-Raf (V600E) was measured by adding serial diluted test compound (final assay concentration of 1% DMSO). A decrease in absorption at 340 nm was monitored continuously for 6 h at 30° C. on a multi-mode microplate reader (BioTek). The reaction rate was calculated using the 3 to 4 h time frame. The reaction rate at each concentration of compound was converted to percent inhibition using controls (i.e., reaction with no test compound and reaction with a known inhibitor) and IC50 values were calculated by fitting a four-parameter sigmoidal curve to the data using Prism (GraphPad software).

[4] = target: T4, A-Raf kinase (Homo sapiens, UniProt P10398, Y301D/Y302D); assay: Biochemical assay for A-Raf.1 (coupled pyruvate kinase/lactate dehydrogenase); conditions: read-out: ARAF.1 IC50
T4 construct: purchased Sigma
T4 sequence (P10398 with tags, fused parts or gaps Y301D/Y302D): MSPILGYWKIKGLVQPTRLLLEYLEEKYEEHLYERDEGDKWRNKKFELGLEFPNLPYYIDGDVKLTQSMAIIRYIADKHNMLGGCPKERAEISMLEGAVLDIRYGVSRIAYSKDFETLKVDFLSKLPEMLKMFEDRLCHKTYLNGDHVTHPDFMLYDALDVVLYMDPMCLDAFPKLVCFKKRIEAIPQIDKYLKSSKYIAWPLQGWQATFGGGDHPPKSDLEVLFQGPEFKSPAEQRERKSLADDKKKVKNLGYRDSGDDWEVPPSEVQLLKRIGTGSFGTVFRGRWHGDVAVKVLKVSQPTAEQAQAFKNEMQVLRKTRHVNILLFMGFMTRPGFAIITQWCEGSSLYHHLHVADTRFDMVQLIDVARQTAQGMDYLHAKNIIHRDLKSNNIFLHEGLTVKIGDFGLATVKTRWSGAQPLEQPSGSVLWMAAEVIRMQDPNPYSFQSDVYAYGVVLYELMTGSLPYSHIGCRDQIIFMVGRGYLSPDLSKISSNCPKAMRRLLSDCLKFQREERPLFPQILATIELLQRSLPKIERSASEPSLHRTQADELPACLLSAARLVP
Method: Biochemical assay for A-Raf.1
as §1, with “A-Raf” for “C-Raf”, “NO. 1)” for “NO: 3)”, “5.55” for “0.43”

[5] = system: A375 cells; assay: A375 cell proliferation assay (1), resazurin, 96-well; format: cell-based; conditions: Homo sapiens, A-375, inhibition of cell proliferation
Method: A375 Cell Proliferation Assay (1)
A375 cells (catalog (#CRL-1619) are obtained from the American Type Culture Collect (ATTC, Manassas, VA). Briefly, cells were grown in DMEM High Glucose supplemented with 10% characterized fetal bovine serum (Invitrogen, Carlsbad, CA) and 1% Penicillin/Streptomycin/L-Glutamine at 37° C., 5% CO2, and 95% humidity. Cells are expanded until reaching 70-95% confluency at which point they are sub-cultured or harvested for assay use. A serial dilution of test compound is dispensed into a 96-well black clear bottom plate in triplicate. Two thousand five hundred cells are added per well in 200 μL complete growth medium in the 96-well plate. Plates are incubated for 67-72 hours at 37° C., 5% CO2, and 95% humidity. At the end of the incubation, 40 μL of a 440 μM solution of resazurin (Sigma, St. Louis, MO) in PBS is added to each well of the plate and plates are incubated for an additional 5-6 hours at 37° C., 5% CO2, and 95% humidity. Plates are read on a Synergy2 or equivalent reader (Biotek, Winooski VT) using an excitation of 540 nm and an emission of 600 nm. Data is analyzed using Prism software (GraphPad, San Diego, CA) to calculate IC50 values.

T1 sequence (P04049 307-648 Y340D/Y341D): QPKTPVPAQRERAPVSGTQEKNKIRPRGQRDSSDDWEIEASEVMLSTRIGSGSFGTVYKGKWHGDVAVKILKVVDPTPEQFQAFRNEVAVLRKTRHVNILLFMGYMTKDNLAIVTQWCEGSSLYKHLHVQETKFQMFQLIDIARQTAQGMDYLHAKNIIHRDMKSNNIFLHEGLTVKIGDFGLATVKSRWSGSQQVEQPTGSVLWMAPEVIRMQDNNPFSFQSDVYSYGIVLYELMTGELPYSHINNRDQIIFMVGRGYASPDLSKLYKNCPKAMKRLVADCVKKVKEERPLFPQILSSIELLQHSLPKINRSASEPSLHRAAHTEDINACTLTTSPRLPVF

pIC50 [1]	pIC50 [2]	pIC50 [3]	pIC50 [4]	pIC50 [5]	SMILES
6.00 to 6.30	< 6.00	≥ 7.00	< 6.00		Cc1ncc(NC(=O)NCCC(C)(C)C)cc1-c1cc(N2CCOCC2)c(=O)n(C)c1 [Example 8]
6.30 to 7.00	6.00 to 6.30	≥ 7.00	< 6.00	5.00 to 6.00	CC(=O)Nc1cc(-c2cc(-c3cc(NC(=O)NCCC4(C)CC4)c(F)cc3C)ccn2)ccn1 [Example 2, N-(4-(4-fluoro-2-methyl-5-(3-(2-(1-methylcyclopropyl)ethyl)ureido)phenyl)-[2,4′-bipyridin]-2′-yl)acetamide]
≥ 7.00	6.30 to 7.00	≥ 7.00	< 6.00	6.30 to 7.00	CNc1cc(-c2cc(-c3cc(NC(=O)NCCC4(C(F)(F)F)CC4)c(F)cc3C)cc(OCCO)n2)ccn1 [Example 28]
≥ 7.00	≥ 7.00	≥ 7.00	6.00 to 6.30		CC(=O)Nc1cc(-c2cc(-c3cc(NC(=O)NCCCC(F)(F)F)c(F)cc3C)cc(C3CC3)n2)ccn1 [Example 58]
6.30 to 7.00	6.30 to 7.00	≥ 7.00	< 6.00		COC1(CCNC(=O)Nc2cc(-c3cc(-c4cnn(C)c4)nc(N4CCOCC4)c3)c(C)cc2F)CC1 [Example 35]
< 6.00	< 6.00	< 6.00	< 6.00		CNC(=O)c1cc(-c2cnnc(-c3cc(NC(=O)N4CC[C@@H](OC)C4)cnc3C)c2)ccn1 [Example 204]
6.30 to 7.00	6.30 to 7.00	≥ 7.00	< 6.00		COC(C)(C)CCNC(=O)Nc1ccc(C)c(-c2cc(-c3cnn(C4CCNCC4)c3)nc(N3CCOCC3)c2)c1 [Example 46]
< 6.00	< 6.00	< 6.00	< 6.00		COC(=O)Nc1cc(-c2cnnc(-c3cc(NC(=O)N4CC[C@@H](OC)C4)cnc3C)c2)ccn1 [Example 203]
< 6.00	< 6.00	< 6.00	< 6.00		COC(=O)Nc1cc(-c2cnnc(-c3cccc(NC(=O)N4CC[C@H](OC)C4)c3)c2)ccn1 [Example 190]
6.00 to 6.30	< 6.00	< 6.00	< 6.00		COC(=O)Nc1cc(-c2cc(-c3cc(NC(=O)N4CCC(C(C)(C)O)C4)cnc3C)ccn2)ccn1 (stereo not drawn) [Example 212]
6.30 to 7.00	6.00 to 6.30	≥ 7.00	< 6.00		Cc1ncc(NC(=O)NCCC(C)(C)C)cc1-c1ccnc(N2CCOCC2)c1 [Example 16]
< 6.00	< 6.00	< 6.00	< 6.00		COC(=O)Nc1cc(-c2cnnc(-c3cc(NC(=O)N4CCC(C)(C)C4)cnc3C)c2)ccn1 [Example 191]
< 6.00	< 6.00	< 6.00	< 6.00		CNC(=O)c1cc(-c2cnnc(-c3cc(NC(=O)N4CC[C@H](OC)C4)cnc3C)c2)ccn1 [Example 189]
6.30 to 7.00	6.00 to 6.30	< 6.00	< 6.00		COC(=O)Nc1cc(-c2cc(-c3cc(NC(=O)N4CCC(C)(C)C4)cnc3C)ccn2)ccn1 [Example 198]
6.30 to 7.00	6.00 to 6.30	≥ 7.00	< 6.00		Cc1cc(F)c(NC(=O)NCCC2(C(F)(F)F)CC2)cc1-c1cc(C2CCOCC2)nc(N2CCN(C)CC2)c1 [Example 12]
< 6.00	< 6.00	< 6.00	< 6.00		COC(=O)Nc1cc(-c2cnnc(-c3cccc(NC(=O)N4CC[C@@H](OC)C4)c3)c2)ccn1 [Example 199]
6.30 to 7.00	< 6.00	≥ 7.00	< 6.00		Cc1ccc(NC(=O)NC23CC4CC(CC(C4)C2)C3)cc1-c1cc(OCCO)nc(N2CCOCC2)c1 [Example 14]
6.00 to 6.30	< 6.00	< 6.00	< 6.00		CNC(=O)c1cc(-c2cnnc(-c3cc(NC(=O)N4CCC(CC(F)(F)F)C4)cnc3C)c2)ccn1 (stereo not drawn) [Example 192]
< 6.00	< 6.00	6.30 to 7.00	< 6.00		Cc1cc(F)c(NC(=O)N[C@H]2C[C@H](N(C)C)C2)cc1-c1cc(OCCO)nc(-c2ccnc3[nH]ncc23)c1 [Example 86]
< 6.00	< 6.00	6.30 to 7.00	< 6.00		Cc1ncc(NC(=O)N2CCOCC2)cc1-c1cccc(-c2cc(NC(=O)C3CC3)ncn2)c1 [Example 74]
6.30 to 7.00	6.30 to 7.00	≥ 7.00	< 6.00		COC(C)(C)CCNC(=O)Nc1cc(-c2cccc(-c3ccnc(N)c3)c2)c(C)cc1F [Example 70]
< 6.00	< 6.00	≥ 7.00	< 6.00		Cc1ncc(NC(=O)NCCC(C)(C)C)cc1-c1cc(N2CCOCC2)c(=O)n(C)n1 [Example 17]
